Experimental data reported in patent US5068198A, “Liquid single reagent for assays involving confining gels” (Syntex (U.S.A.) Inc., priority 1989, dated 1991).
Read-outs that look alike come from different tables or passages of the source.

Tests used:
[1] = system: G6PDH; experiment: Inhibition of G6PDH by encapsulated and free Anti-G6PDH, with or without Triton; format: biochemical; conditions: Triton 5%; in words
Protocol: Anti-G6PDH was encapsulated in liposome. The liposome composition was L-α-dioleoyl lecithin (70%) and L-α-dioleoyl phosphatidyl glycerol (30%).
Enzyme: G6PDH, dissolved in buffer
Free Antibody: Anti-G6PDH, in buffer
Substrate: 0.13M G6P, 0.08M NAD, and
Protocol: 50 μl of enzyme (270 ng) was mixed with 50 μl of free or encapsulated antibody and 0.6 ml Buffer containing (1 mg/ml) with or without 5% Triton. After one hour at ambient temperature, 50 μl of substrate was added together with 0.3 ml buffer.

[2] = system: Anti-digoxin
Protocol: Reagent: Digoxin-G6PDH encapsulated
in liposomes (POPC 70%, POPG
Anti-digoxin optimized for
response, 0.13M G6P, RSA (20
Diluent: 0.5% Triton, 4 mM NAD, 5mM
Protocol: 50 μl of the reagent was drawn up into a diluter and dispensed with 200 μl of buffer containing RSA (1 mg/ml) into a 1 ml Croan cup. A 50 μl aliquot of the sample was drawn up and dispersed with 700 μl of diluent into the Croan cup. Immediately after sample addition, the entire sample was aspirated into a flow cell and readings were taken at 30° over thirty seconds.

[3] = system: Anti-digoxin; remark: listed apart in the source
Description: As a comparison to the assay using a single liquid reagent an assay was run using unencapsulated enzyme conjugate and antibody in separate liquid reagents. The reagent quantities and the final volume of the assay were arranged to be identical to those in the single reagent assay above in Example 3.

[4] = system: monoclonal anti-theophylline; experiment: Assay for theophylline using encapsulated Theophylline-G6PDH as a single liquid reagent; format: biochemical
Protocol: Theophylline-G6PDH was encapsulated in liposomes (POPC 76%, POPG 4%, and cholesterol 20%) and used in an assay for theophylline. The assay employed the following reagents:
Protocol 0.3 ml of the Reagent dispensed into a Croan cup.

[5] = digoxin 0.083 μg/ml, 30°, thirty seconds

Triton
effect of Triton on enzyme activity or extent of inhibition in enzyme by antibody [1]: did not affect

C[C@H]1O[C@@H](O[C@H]2[C@@H](O)C[C@H](O[C@H]3[C@@H](O)C[C@H](O[C@H]4CC[C@@]5(C)[C@H](CC[C@@H]6[C@@H]5C[C@@H](O)[C@]5(C)[C@@H](C7=CC(=O)OC7)CC[C@]65O)C4)O[C@@H]3C)O[C@@H]2C)C[C@H](O)[C@@H]1O [Digoxin, digoxin]
enzyme activity, Single Reagent [2, 5]: 403 EU
enzyme activity, Single Reagent ([2]; digoxin 0.166 μg/ml): 440 EU
enzyme activity, Single Reagent ([2]; digoxin 0.333 μg/ml): 511 EU
enzyme activity, Single Reagent ([2]; digoxin 0.666 μg/ml): 584 EU
enzyme activity, Single Reagent ([2]; digoxin 1.33 μg/ml): 628 EU
enzyme activity, Single Reagent ([2]; digoxin 2.66 μg/ml): 653 EU
enzyme activity, Single Reagent ([2]; digoxin 10.65 μg/ml): 665 EU
enzyme activity, Two Reagent [3, 5]: 410 EU
enzyme activity, Two Reagent ([3]; digoxin 0.166 μg/ml): 456 EU
enzyme activity, Two Reagent ([3]; digoxin 0.333 μg/ml): 518 EU
enzyme activity, Two Reagent ([3]; digoxin 0.666 μg/ml): 603 EU
enzyme activity, Two Reagent ([3]; digoxin 1.33 μg/ml): 645 EU
enzyme activity, Two Reagent ([3]; digoxin 2.66 μg/ml): 678 EU
enzyme activity, Two Reagent ([3]; digoxin 5.33 μg/ml): 713 EU
enzyme activity, Two Reagent ([3]; digoxin 10.65 μg/ml): 717 EU

Cn1c(=O)c2[nH]cnc2n(C)c1=O [Theophylline, theophylline]
enzyme activity, Single Reagent ([4]; theophylline 2.5 μg/ml, 30°, thirty second read): 356 Eu
enzyme activity, Single Reagent ([4]; theophylline 5 μg/ml): 394 Eu
enzyme activity, Single Reagent ([4]; theophylline 10 μg/ml): 455 Eu
enzyme activity, Single Reagent ([4]; theophylline 20 μg/ml): 537 Eu
enzyme activity, Single Reagent ([4]; theophylline 40 μg/ml): 610 Eu
